Reference: publication PMC6938345, “Inhibition of complement activation, myeloperoxidase, NET formation and oxidant activity by PIC1 peptide variants” (PLoS ONE, 2019)
“Also recorded” adds a separate entry of the source.

What was measured:
C1q = target: T1, C1q (Homo sapiens, UniProt P02745+P02746+P02747); test: C1q binding ELISA-type assay; conditions: C1q as capture substrate
T1 construct: purchased Complement Technology (Tyler, TX)
Description: An Immunlon-2 HB ELISA plate was coated with 1 μg/ml C1q or MPO in bicarbonate buffer overnight at 4 °C. The plates were washed with PBST (phosphate buffered saline + 0.1% Tween) and then blocked with 1% gelatin/PBS for 2 hours at room temperature. After washing, the plates were incubated with PA or sarcosine variant peptides starting at 2.5 mg/ml and then serially diluted in 1% gelatin/PBS for 1 hour at room temperature. After washing, the plates were probed with rabbit anti-PA (developed with Cocalico Biologicals, Reamstown, PA) at 1:1000 in 1% gelatin/PBS for 1 hour, room temperature, followed by a goat anti-rabbit HRP (Sigma Aldrich, St Louis, MO) at 1:1,000 in 1% gelatin/PBS for 1 hour at room temperature with a washing step in between. Wells were developed using TMB substrate solution, stopped using 1 N H2SO4, and read at 450 nm in a plate reader.
We then tested peptide variant binding to C1q in an ELISA-type assay in which the C1q is used as the capture substrate. Binding curves for each peptide is shown in Fig 1C, from which half-maximal binding concentrations were calculated (Fig 1D). […] Higher concentrations of DMSO interfere with the detecting reagents resulting in a partial binding curve.

MPO heme ring = target: T2, MPO heme ring (Homo sapiens, UniProt P05164); test: MPO heme ring oxidative degradation; assay type: biochemical; conditions: peptides 3.0 mM, H2O2, absorbance 300-550 nm
T2 construct: purchased Lee BioSolutions (Maryland Heights, MO)
T2 sequence (P05164 49-745): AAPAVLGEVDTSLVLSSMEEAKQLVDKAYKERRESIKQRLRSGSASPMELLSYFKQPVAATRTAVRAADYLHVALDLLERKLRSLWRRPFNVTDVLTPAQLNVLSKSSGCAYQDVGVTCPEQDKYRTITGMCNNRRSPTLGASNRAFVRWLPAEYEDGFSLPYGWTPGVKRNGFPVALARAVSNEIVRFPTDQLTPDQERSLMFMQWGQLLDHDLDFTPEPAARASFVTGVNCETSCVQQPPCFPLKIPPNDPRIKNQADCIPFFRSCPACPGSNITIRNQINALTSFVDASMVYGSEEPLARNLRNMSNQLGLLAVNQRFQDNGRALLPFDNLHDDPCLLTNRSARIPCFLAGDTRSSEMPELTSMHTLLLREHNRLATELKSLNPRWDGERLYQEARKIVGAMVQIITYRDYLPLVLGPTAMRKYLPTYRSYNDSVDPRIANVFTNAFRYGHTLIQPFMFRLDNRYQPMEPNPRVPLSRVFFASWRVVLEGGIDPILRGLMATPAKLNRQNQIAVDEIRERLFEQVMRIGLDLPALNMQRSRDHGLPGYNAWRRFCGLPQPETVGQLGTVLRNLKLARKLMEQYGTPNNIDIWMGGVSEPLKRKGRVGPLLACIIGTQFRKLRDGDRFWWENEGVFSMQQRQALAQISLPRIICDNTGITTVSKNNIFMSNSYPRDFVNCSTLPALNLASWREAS
Description: In a 96 well plate, 0.025 ml of 1.7 mg/ml MPO was combined with 0.00125 ml of 0.5% H2O2 and 3 mM PIC1 or sarcosine variant peptides in a total volume of 0.125 ml PBS and left to incubate at room temperature for 2 minutes. Using a 96 well plate reader, the wells were scanned for absorbance from 300–550 nm to generate curves reflecting the iron state in the MPO heme ring, as previously reported.
We then evaluated the ability of the variants to prevent degradation of the heme ring in the MPO molecule. […] This can be evaluated via spectrometric measurements of absorption of wavelengths from 300–550 nm. Absorption measurements were made over this spectrum for all variants (Fig 3A–3H). […] The heme ring preservation for these two variants was greater than that for the parent compound, PA-dPEG24.
Fig 3 Sarcosine variant protection of MPO heme ring from oxidative degradation. Absorbance spectra for the heme ring is shown in the absence of hydrogen peroxide (MPO) in red, in the presence of hydrogen peroxide (MPO+H2O2) in black, in the presence of peptide in blue, and in the presence of hydrogen peroxide and peptide together in green. […] B-H) Peptides A2 – C9,10 are denoted in the legends. Peptides were tested at a concentration of 3.0 mM.

[1] = tested on: antibody-initiated complement activation (type O sera + type AB red blood cells); test: ABO incompatibility hemolytic assay (CH50-type, ex vivo); assay type: cell-based, human; conditions: peptides 1.8 mM
Description: (§1) For hemolytic complement assays, human red blood cells (RBCs) from type AB donors were purified, washed and standardized to 1 × 10^9 cells/ml, as previously described. Human sera from type O donors at a 20% final concentration was combined with 1 mM PIC1 or sarcosine variant peptides and the volume was brought up to 0.15 ml with GVBS^++ and 0.5 ml RBCs. For factor B-depleted sera hemolytic assays, a final of 0.005% factor B depleted sera was incubated with 1 mM PIC1 or sarcosine variant peptides with 0.1 ml antibody-sensitized sheep red blood cells (EA) in a final volume of 0.75 ml GVBS^++. The samples were incubated for 1 hour at 37 °C and then 1.0 ml of GVBS^-—was added to the factor B-depleted samples to stop the reaction. The samples were spun at 3,000 rpm for 5 minutes and the supernatant was collected and read at 412 nm. Values are represented as a percent of the positive control, which consists of human O sera and AB red blood cells in GVBS^++ buffer.
In order to evaluate the extent to which the peptide variants inhibit antibody-initiated complement activation, we tested them in two hemolytic assays including an ABO incompatibility ex vivo assay (Fig 1A) and a classical pathway CH50-type assay in factor B-depleted sera (Fig 1B). In the ABO incompatibility hemolytic assay, purified erythrocytes from a ‘type AB+’ donor are incubated with sera from a ‘type O’ subject containing anti-A and anti-B antibodies; peptides were tested at 1.8 mM. […] We then performed a CH50-type hemolytic assay, with antibody-sensitized sheep erythrocytes, isolating the classical pathway by utilizing factor B-depleted sera; peptides were tested at 0.4 mM.
Fig 1 Sarcosine variant inhibition of complement activation in hemolytic assays and C1q binding. A) Inhibition of ABO incompatibility hemolysis in a CH50-type assay. Peptides are at a final concentration of 1.8 mM. […] Data are the means of n = 4 independent experiments + SEM. B) Inhibition of classical complement pathway-mediated hemolysis in factor B-depleted sera in a CH50-type assay. Peptides are at a final concentration of 0.4 mM. Data are the means of n = 4 independent experiments + SEM. C) Binding of increasing concentrations of sarcosine variants to purified C1q in an ELISA-type assay. Data are the means of n = 3 independent experiments ± SEM. D) Half-maximal binding concentrations were calculated for each peptide’s binding curve.

[2] = tested on: classical complement pathway (factor B-depleted human sera + antibody-sensitized sheep erythrocytes); test: Classical pathway CH50-type hemolytic assay in factor B-depleted sera; assay type: cell-based; conditions: peptides 0.4 mM, P < 0.001
Description: as §1, with “buffer. […]” for “buffer.”
Fig 1 Sarcosine variant inhibition of complement activation in hemolytic assays and C1q binding. […] D) Half-maximal binding concentrations were calculated for each peptide’s binding curve.

T1 sequence (P02745 23-245): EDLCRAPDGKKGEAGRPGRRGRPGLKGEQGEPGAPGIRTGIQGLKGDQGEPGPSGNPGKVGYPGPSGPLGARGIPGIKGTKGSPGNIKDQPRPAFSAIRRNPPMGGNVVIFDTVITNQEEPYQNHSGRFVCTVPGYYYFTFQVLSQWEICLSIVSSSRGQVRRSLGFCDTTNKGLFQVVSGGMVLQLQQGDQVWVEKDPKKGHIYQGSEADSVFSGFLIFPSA
T1 sequence (P02746 28-253): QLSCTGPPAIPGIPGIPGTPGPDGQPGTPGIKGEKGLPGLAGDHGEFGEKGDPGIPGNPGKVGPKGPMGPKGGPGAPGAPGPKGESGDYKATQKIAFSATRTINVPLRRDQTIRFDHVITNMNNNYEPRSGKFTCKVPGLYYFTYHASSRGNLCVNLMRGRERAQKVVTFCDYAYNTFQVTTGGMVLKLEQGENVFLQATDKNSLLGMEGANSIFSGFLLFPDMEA
T1 sequence (P02747 29-245): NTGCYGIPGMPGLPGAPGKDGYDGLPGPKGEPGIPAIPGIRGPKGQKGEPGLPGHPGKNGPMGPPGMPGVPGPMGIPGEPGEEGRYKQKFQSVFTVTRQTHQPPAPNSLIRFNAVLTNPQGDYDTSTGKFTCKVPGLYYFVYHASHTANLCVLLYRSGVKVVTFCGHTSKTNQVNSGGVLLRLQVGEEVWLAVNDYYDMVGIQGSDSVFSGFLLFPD

CC[C@H](C)[C@H](N)C(=O)N[C@@H](C)C(=O)N[C@@H](CC(C)C)C(=O)N[C@H](C(=O)N[C@@H](CC(C)C)C(=O)N[C@@H](CCC(=O)O)C(=O)N1CCC[C@H]1C(=O)N(C)CC(=O)N[C@@H](CS)C(=O)N[C@@H](CS)C(=O)N[C@@H](CCC(N)=O)C(=O)N[C@@H](CCC(=O)O)C(=O)N[C@@H](CCCNC(=N)N)C(=O)N[C@@H](C)C(=O)N[C@@H](C)C(=O)O)[C@@H](C)CC [I8]
binding to C1q (in words) (C1q): superior binding to C1q; also recorded: slightly superior to that of PA-dPEG24 | protection of MPO heme ring from degradation (in words) (MPO heme ring): near perfect preservation | ABO hemolysis ([1]; Avg of n = 4, concentration basis of PIC1 not stated): 13.50 % of Control | inhibition of ABO incompatible hemolysis (in words) [1]: to a greater extent than did the PA-dPEG24 | decrease of ABO hemolysis more than PA-dPEG24 ([1]; equimolar basis, P < 0.002): 53% | inhibition of hemolysis more than PA-dPEG24 [2]: 75%
